Test results published in patent EP1200059B1, “SKIN CARE COMPOSITION” (UNILEVER PLC, priority 1999, dated 2001).
Entries after “also recorded” stand apart in the source; their conditions may differ. Read-outs that look alike come from different tables or passages of the source.

What was measured:
[1] = biological target: T1, lecithin retinol acyl transferase (LRAT) (Bos taurus, UniProt Q9BGL2); assay: in vitro Microsomal Assay of retinol esterification, LRAT catalysed (retinyl laurate formation)
T1 sequence (Q9BGL2 1-230): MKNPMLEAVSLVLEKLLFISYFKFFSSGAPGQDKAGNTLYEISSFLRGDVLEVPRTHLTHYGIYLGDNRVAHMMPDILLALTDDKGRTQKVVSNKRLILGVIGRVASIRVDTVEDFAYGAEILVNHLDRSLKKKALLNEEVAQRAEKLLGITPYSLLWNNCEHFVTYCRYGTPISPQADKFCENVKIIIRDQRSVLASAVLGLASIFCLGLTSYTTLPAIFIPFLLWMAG
Description: (§3) A solution containing 0.1M sodium phosphate pH 7 buffer, 5mM dithiothreitol, 2 mg/ml bovine serum albumin, 40 micromolar palmitoyl CoA, 40 micromolar dilauroyl phosphatidyl choline, 10 micromolar retinol and a test compound or solvent blank, was incubated for 1 hour at 37°C with a microsomal fraction isolated from bovine retinal pigment epithelial cells. After incubation, the reaction was quenched by addition of an equal volume of ethanol, and the retinyl esters formed (retinyl palmitate from the ARAT catalysed reaction, and retinyl laurate from the LRAT catalysed reaction) were extracted with hexane.

[2] = tested on: acyl CoA retinol transferase (ARAT); assay: in vitro Microsomal Assay of retinol esterification, ARAT catalysed (retinyl palmitate formation)
Description: as §3

[3] = tested on: procollagen-I synthesis in human dermal fibroblasts; assay: Dot blot assay for procollagen-I protein in dermal fibroblast conditioned medium; format: cell-based; settings: 24 hours, control = 100%
Description: (§1) Primary human foreskin fibroblasts at passage 2 (P2) were seeded into 12-well plates at 10000 cells/cm^2 and maintained for 24 hours in an atmosphere of 5% carbon dioxide and 4% oxygen in Dulbeccos Modified Eagles Medium (DMEM) supplemented with 10% foetal calf serum. After this time the cells were washed with serum free DMEM and then incubated in fresh serum free DMEM for a further 60 hours. The fibroblast monolayers were then washed again with serum free DMEM. Test reagents and vehicle controls were added to the cells in triplicate in a final volume of 0.4ml/well fresh serum free DMEM and incubated for a further 24 hours. This fibroblast conditioned medium was either analysed immediately or snap frozen in liquid nitrogen and stored at -70°C for future analysis. The cells were then counted and data from the dot-blot analysis subsequently standardised to cell number. […]
(§2) At the end of this time the exposed screen was scanned by a phosphorimager (Molecular Dynamics Phosphorimager SF) using ImageQuant™ software. Dot intensity was assessed by computer-assisted image analysis using the quantification tools in ImageQuant™, standardised to cell number and the effects of various test reagents on decorin and procollagen-I synthesis were determined relative to a vehicle treated control value of 100 arbitrary units. […]

[4] = tested on: decorin synthesis in human dermal fibroblasts; assay: Dot blot assay for decorin protein in dermal fibroblast conditioned medium; format: cell-based; settings: 0.1 µM CLA; 24 hours; relative to vehicle control = 100
Description: as §1, §2

[5] = tested on: LRAT and ARAT catalysed retinol esterification; assay: in vitro Microsomal Assay, overall verdict on retinol esterification (LRAT and ARAT); settings: verdict on the table results
Description: as §3

N[C@@H](Cc1c[nH]c2ccccc12)C(=O)O [tryptophan]
inhibition at 100 µM ([1]; read-out: % INHIB. LRAT): 0% | % INHIB. ARAT ([2]; Table 5, 100 μM): 0%

O=C(NCO)N(CO)C1(CO)C(=O)NC(=O)N1CO (centres unmarked) [diazolidinyl urea]
inhibition at 100 µM ([1]; read-out: % INHIB. LRAT): 0% | % INHIB. ARAT ([2]; Table 5, 100 μM): 0%

CC12CCC(C1)C(C)(C)C2O (centres unmarked) [Fenchyl alcohol]
% INHIBITION, ARAT ([2]; Table 7, 100 µM): 12%

CC1=CCC(CCC(C)CO)C1(C)C (centres unmarked) [Brahmanol]
inhibition at 100 µM ([1]; read-out: % INHIBITION, LRAT): 75% | % INHIBITION, ARAT ([2]; Table 6A, 100µM): 70%

Cc1ncc(C[n+]2csc(CCO)c2C)c(N)n1 [thiamine]
inhibition at 100 µM ([1]; read-out: % INHIB. LRAT): 0% | % INHIB. ARAT ([2]; Table 5, 100 μM): 0%

CC1=C(/C=C/C(C)=C/C=C/C(C)=C/C(=O)O)C(C)(C)CCC1 [trans Retinoic acid, reference compound]
Procollagen 1 ([3]; 0.01 µM trans Retinoic acid): 102.8%

disodium cocamphodiacetate
% INHIB. LRAT ([1]; Table 5, 100 μM): 0%

C/C=C/C(=O)C1=C(C)CCCC1(C)C [Beta damascone]
inhibition at 10 µM ([1]; read-out: % INHIBITION, LRAT): 52% | inhibition at 100 µM ([1]; read-out: % INHIBITION, LRAT): 92%

CC=CC(=O)C1C(C)=CCCC1(C)C (stereo not drawn) [alpha damascone]
inhibition at 10 µM ([1]; read-out: % INHIBITION, LRAT): 87% | inhibition at 100 µM ([1]; read-out: % INHIBITION, LRAT): 98% | % INHIBITION, ARAT ([2]; Table 6A, 100µM): 83% | % INHIBITION, ARAT ([2]; Table 6B, 10µM): 67%

Nc1ncnc2nc[nH]c12 [adenine]
inhibition at 100 µM ([1]; read-out: % INHIB. LRAT): 0% | % INHIB. ARAT ([2]; Table 5, 100 μM): 0%

conjugated linoleic acid [CLA]
Decorin [4]: 96.8% | Procollagen 1 ([3]; 0.1 µM CLA): 78.9%

O=CC=Cc1ccccc1 [Cinnamaldehyde]
inhibition at 100 µM ([1]; read-out: % INHIBITION, LRAT): 0% | % INHIBITION, ARAT ([2]; Table 7, 100 µM): 0%

CC(C)=CCC/C(C)=C/CC/C(C)=C/CC/C(C)=C/CO [Geranyl Geraniol]
retinol esterification inhibition (result in words) [5]: inhibit retinol esterification; also recorded: potent inhibitor of retinol esterification | inhibition at 10 µM ([1]; read-out: % INHIB. LRAT): 16% | inhibition at 100 µM ([1]; read-out: % INHIB. LRAT): 77% | % INHIB. ARAT ([2]; Table 8, 10 µM): 38% | % INHIB. ARAT ([2]; Table 8, 100 µM): 81%

Cc1ccc(C(C)C)c(O)c1 [Thymol]
inhibition at 100 µM ([1]; read-out: % INHIBITION, LRAT): 0% | % INHIBITION, ARAT ([2]; Table 7, 100 µM): 0%

COc1cc(C=O)ccc1O [Vanillin]
inhibition at 100 µM ([1]; read-out: % INHIBITION, LRAT): 0% | % INHIBITION, ARAT ([2]; Table 7, 100 µM): 0%

CC12CCC(CC1=O)C2(C)C (centres unmarked) [Camphor]
inhibition at 100 µM ([1]; read-out: % INHIBITION, LRAT): 0% | % INHIBITION, ARAT ([2]; Table 7, 100 µM): 0%

CC1=C(/C=C/C(C)O)C(C)(C)CCC1 (stereo not drawn) [Beta ionol]
inhibition at 100 µM ([1]; read-out: % INHIBITION, LRAT): 0%

CC(C)=CCCC(C)=CCCC(C)=CCO [Farnesol]
retinol esterification inhibition (result in words) [5]: inhibit retinol esterification | inhibition at 10 µM ([1]; read-out: % INHIB. LRAT): 10% | inhibition at 100 µM ([1]; read-out: % INHIB. LRAT): 43% | % INHIB. ARAT ([2]; Table 8, 10 µM): 20% | % INHIB. ARAT ([2]; Table 8, 100 µM): 43%

CC1=CCCC(C)(C)C1/C=C/C(C)O (stereo not drawn) [Alpha ionol]
inhibition at 100 µM ([1]; read-out: % INHIBITION, LRAT): 0%

CCOC(=O)C1=C(C)C=CCC1(C)C [Ethyl saffranate]
% INHIBITION, LRAT ([1]; Table 6A, 100µM): 49%

O=c1cc[nH]c(=O)[nH]1 [uracil]
inhibition at 100 µM ([1]; read-out: % INHIB. LRAT): 0% | % INHIB. ARAT ([2]; Table 5, 100 μM): 0%
